Test results published in patent publication US20180072666A1, “ENOYL REDUCTASE INHIBITORS WITH ANTIBACTERIAL ACTIVITY” (Novalex Therapeutics, Inc., priority 2016, published 2018).
In brackets after ≈: the same amount, converted by molar mass. Where two headings read alike, the source gives them in different places.

Assays:
[1] = target: Acinetobacter baumannii FabI (AbFabI) (Acinetobacter baumannii, UniProt A0ABX6CD96); assay: biochemical; assay type: biochemical; conditions: read-out: Enzyme inhibition or IC50 with AbFabl
S. aureus strain RN4220 = assay: microbe, parasite or virus in culture; assay type: cell-based; conditions: Staphylococcus aureus, RN4220, read-out: MIC S. aureus RN4220 WT
E. coli strain BW25113 = assay: microbe, parasite or virus in culture; assay type: cell-based; conditions: Escherichia coli, BW25113, read-out: MIC E. coli BW25113 WT
[2] = tested on: F. tularensis (strain Utah); assay: microbe, parasite or virus in culture; assay type: cell-based; conditions: Francisella tularensis, read-out: MIC F. tularensis strain Utah
[3] = tested on: E. coli tolC- (strain BW25113, efflux pump mutant); assay: microbe, parasite or virus in culture; assay type: cell-based; conditions: Escherichia coli, BW25113, read-out: MIC E. coli TolC-
[4] = target: T1, Staphylococcus aureus FabI (SaFabI) (Staphylococcus aureus, UniProt Q6GI75); assay: biochemical; assay type: biochemical
T1 sequence (Q6GI75 1-256): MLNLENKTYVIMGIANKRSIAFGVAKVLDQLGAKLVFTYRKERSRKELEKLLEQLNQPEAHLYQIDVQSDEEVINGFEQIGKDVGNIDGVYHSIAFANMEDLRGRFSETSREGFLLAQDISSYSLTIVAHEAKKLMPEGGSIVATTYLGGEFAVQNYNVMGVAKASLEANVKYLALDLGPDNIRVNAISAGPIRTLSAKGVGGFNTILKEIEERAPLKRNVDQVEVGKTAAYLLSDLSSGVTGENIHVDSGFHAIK

S. aureus strain Newman = assay: MIC determination, S. aureus Newman; assay type: cell-based; conditions: Staphylococcus aureus, read-out: MIC S. aureus Newman WT
[5] = 200 nM enzyme, 300 μM crotonyl-coenzymeA, 200 μM NADPH, pH 5.5, read-out: Enzyme inhibition or IC50 with SaFabl
[6] = TSB media, 37° C. overnight, first clear well

CC(=O)Nc1ccc(/C=C/C(=O)N2CCC(c3ccccc3)C2)cn1 (centres unmarked)
IC50 ([1]; pH 5.5): 0.47 µM
MIC (S. aureus strain RN4220): > 200 µg/mL
MIC (E. coli strain BW25113): > 200 µg/mL
MIC [2]: > 200 µg/mL
MIC [3]: 12.5 µg/mL (≈ 37.3 µM)
IC50 [4, 5]: 1.2 µM

COc1ccccc1C1CCN(C(=O)/C=C/c2ccc(NC(C)=O)nc2)C1 (centres unmarked)
IC50 ([1]; pH 5.5): 0.42 µM
MIC (S. aureus strain RN4220): 12.5 to 25 µg/mL (≈ 34.2 to 68.4 µM)
MIC (E. coli strain BW25113): > 200 µg/mL
MIC (S. aureus strain Newman): 12.5 to 25 µg/mL (≈ 34.2 to 68.4 µM)
MIC [2]: 12.5 µg/mL (≈ 34.2 µM)
MIC [3]: 0.75 µg/mL (≈ 2.05 µM)
IC50 [4, 5]: 3.5 µM

COc1ccccc1C1CCN(C(=O)Cc2ccccc2Cl)C1 (centres unmarked)
IC50 [1]: 0.88 µM
MIC (S. aureus strain RN4220): 12.5 to 25 µg/mL (≈ 37.9 to 75.8 µM)
MIC [2]: 50 µg/mL (≈ 152 µM)
MIC [3]: > 200 µg/mL
IC50 [4, 5]: 0.5 µM

CC(=O)Nc1ccc(/C=C/C(=O)N2CCC(c3ccccn3)C2)cn1 (centres unmarked)
IC50 [1]: 5 µM
MIC (S. aureus strain RN4220): > 100 µg/mL
MIC (E. coli strain BW25113): > 100 µg/mL
MIC [2]: > 100 µg/mL
MIC [3]: 100 µg/mL (≈ 297 µM)
IC50 [4, 5]: 28.4 µM

CC(=O)Nc1ccc(/C=C/C(=O)N2CCC(c3ccc4c(c3)OCO4)C2)cn1 (centres unmarked)
IC50 ([1]; pH 5.5): 8.5 µM
MIC (S. aureus strain RN4220): > 200 µg/mL
MIC (E. coli strain BW25113): > 100 µg/mL
MIC [2]: > 200 µg/mL
MIC [3]: > 100 µg/mL
IC50 [4, 5]: 1.1 µM

CC(=O)Nc1ccc(/C=C/C(=O)N2CCC(c3nccs3)C2)cn1 (centres unmarked)
IC50 [1]: 10 to 20 µM
MIC (S. aureus strain RN4220): > 100 µg/mL
MIC (E. coli strain BW25113): > 100 µg/mL
MIC [2]: > 100 µg/mL
MIC [3]: > 100 µg/mL
IC50 [4, 5]: 4.5 µM

O=C(Cc1ccccc1Cl)N1CCC(c2nccs2)C1 (centres unmarked)
IC50 [1]: 14 µM
MIC (S. aureus strain RN4220): 50 µg/mL (≈ 163 µM)
MIC [2]: 200 µg/mL (≈ 652 µM)
MIC [3]: > 100 µg/mL
IC50 [4, 5]: 6 µM

O=C(Cc1ccccc1Cl)N1CCC(c2ccccc2)C1 (centres unmarked)
IC50 ([1]; pH 5.5): 3.1 µM
MIC (S. aureus strain RN4220): 12.5 µg/mL (≈ 41.7 µM)
MIC (E. coli strain BW25113): > 200 µg/mL
MIC (S. aureus strain Newman): 12.5 to 25 µg/mL (≈ 41.7 to 83.4 µM)
MIC [2]: 25 µg/mL (≈ 83.4 µM)
IC50 [4, 5]: 10.7 µM

O=C(Cc1ccccc1Cl)N1CCC(c2ccc3c(c2)OCO3)C1 (centres unmarked)
IC50 [1]: 3.7 µM
MIC (S. aureus strain RN4220): 12.5 µg/mL (≈ 36.4 µM)
MIC (E. coli strain BW25113): > 200 µg/mL
MIC (S. aureus strain Newman): 6.25 to 12.5 µg/mL (≈ 18.2 to 36.4 µM)
MIC [2]: 25 µg/mL (≈ 72.7 µM)
IC50 [4, 5]: 2.5 µM

O=C(Cc1ccccc1Cl)N1CCC(c2ccccn2)C1 (centres unmarked)
IC50 ([1]; pH 5.5): 30.7 µM
MIC (S. aureus strain RN4220): 100 µg/mL (≈ 332 µM)
MIC [2]: 200 µg/mL (≈ 665 µM)
MIC [3]: > 200 µg/mL
IC50 [4, 5]: 18.4 µM

CC(=O)Nc1ccc(CC(=O)N2CCC(c3ccccc3)C2)cc1 (centres unmarked)
IC50 [1]: > 100 µM
MIC (S. aureus strain RN4220): > 200 µg/mL
MIC [2]: 200 µg/mL (≈ 620 µM)
MIC [3]: 200 µg/mL (≈ 620 µM)

COc1ccccc1C1CCN(C(=O)Cc2ccc(NC(C)=O)cc2)C1 (centres unmarked)
IC50 [1]: > 100 µM
MIC (S. aureus strain RN4220): > 200 µg/mL
MIC [2]: > 200 µg/mL
MIC [3]: > 200 µg/mL

CC(=O)Nc1ccc(CC(=O)N2CCC(c3ccc4c(c3)OCO4)C2)cc1 (centres unmarked)
IC50 [1]: > 100 µM
MIC (S. aureus strain RN4220): > 200 µg/mL
MIC [2]: > 200 µg/mL
MIC [3]: > 200 µg/mL

COc1ccc(C2CCN(C(=O)Cc3ccc(NC(C)=O)cc3)C2)cc1 (centres unmarked)
IC50 [1]: > 100 µM
MIC (S. aureus strain RN4220): > 200 µg/mL
MIC [2]: > 200 µg/mL
MIC [3]: > 200 µg/mL

COc1ccc(C2CCN(C(=O)/C=C/c3ccc(NC(C)=O)nc3)C2)cc1 (centres unmarked)
IC50 [1]: > 100 µM
MIC (S. aureus strain RN4220): > 200 µg/mL
MIC [2]: > 200 µg/mL
MIC [3]: > 200 µg/mL
IC50 [4]: 3.55 µM

CC(=O)Nc1ccc(CC(=O)N2CCC(c3nccs3)C2)cc1 (centres unmarked)
IC50 [1]: > 100 µM
MIC (S. aureus strain RN4220): > 200 µg/mL
MIC [2]: > 200 µg/mL
MIC [3]: > 200 µg/mL

COc1ccc(C2CCN(C(=O)Cc3ccccc3Cl)C2)cc1 (centres unmarked)
MIC (S. aureus strain RN4220): 100 µg/mL (≈ 303 µM)
MIC [2]: 12.5 µg/mL (≈ 37.9 µM)
MIC [3]: 100 µg/mL (≈ 303 µM)
IC50 [4, 5]: 12.5 µM

CC(C)S(=O)(=O)c1ccc(CC(=O)N2CCC(c3ccc4c(c3)OCO4)C2)cc1 (centres unmarked)
IC50 [1]: > 100 µM
MIC (S. aureus strain RN4220): > 200 µg/mL
MIC [2]: 100 µg/mL (≈ 241 µM)
MIC [3]: > 200 µg/mL

O=C(Cc1c(F)cccc1Cl)N1CCC(c2ccc3c(c2)OCO3)C1 (centres unmarked)
IC50 [1]: > 100 µM
MIC (S. aureus strain RN4220): 25 µg/mL (≈ 69.1 µM)
MIC [2]: 25 µg/mL (≈ 69.1 µM)
MIC [3]: > 200 µg/mL
IC50 [4, 5]: 1.8 µM

O=C(Cc1ccccc1F)N1CCC(c2ccccc2)C1 (centres unmarked)
IC50 [1]: 2.5 µM
MIC (S. aureus strain RN4220): 50 µg/mL (≈ 176 µM)
MIC (S. aureus strain Newman; [6]): 50 to 100 µg/mL (≈ 176 to 353 µM)
MIC [2]: 50 µg/mL (≈ 176 µM)
MIC [3]: > 200 µg/mL
IC50 [4, 5]: 5 µM

O=C(Cc1c(F)cccc1F)N1CCC(c2ccccc2)C1 (centres unmarked)
IC50 [1]: 6.9 µM
MIC (S. aureus strain RN4220): 50 µg/mL (≈ 166 µM)
MIC (S. aureus strain Newman; [6]): 50 to 100 µg/mL (≈ 166 to 332 µM)
MIC [2]: 50 µg/mL (≈ 166 µM)
MIC [3]: > 200 µg/mL
IC50 [4, 5]: 1.9 µM

O=C(Cc1cccc(F)c1F)N1CCC(c2ccccc2)C1 (centres unmarked)
IC50 [1]: 9.3 µM
MIC (S. aureus strain RN4220): 50 µg/mL (≈ 166 µM)
MIC (S. aureus strain Newman; [6]): 50 to 100 µg/mL (≈ 166 to 332 µM)
MIC [2]: 25 to 50 µg/mL (≈ 83 to 166 µM)
MIC [3]: > 200 µg/mL
IC50 [4, 5]: 7.3 µM

COc1ccccc1C1CCN(C(=O)/C=C/c2ccc(NC(C)=O)cc2)C1 (centres unmarked)
MIC (S. aureus strain RN4220): > 200 µg/mL
MIC [2]: > 200 µg/mL
MIC [3]: > 200 µg/mL

COc1ccccc1C1CCN(C(=O)Cc2ccccc2F)C1 (centres unmarked)
IC50 [1]: 1.9 µM
MIC (S. aureus strain RN4220): 50 to 100 µg/mL (≈ 160 to 319 µM)
MIC (S. aureus strain Newman; [6]): 50 to 100 µg/mL (≈ 160 to 319 µM)
MIC [2]: 50 to 100 µg/mL (≈ 160 to 319 µM)
MIC [3]: > 200 µg/mL
IC50 [4, 5]: 4.6 µM

COc1ccccc1C1CCN(C(=O)Cc2c(F)cccc2F)C1 (centres unmarked)
IC50 [1]: 1.6 µM
MIC (S. aureus strain RN4220): 50 to 100 µg/mL (≈ 151 to 302 µM)
MIC (S. aureus strain Newman; [6]): 50 to 100 µg/mL (≈ 151 to 302 µM)
MIC [2]: 50 to 100 µg/mL (≈ 151 to 302 µM)
MIC [3]: > 200 µg/mL
IC50 [4, 5]: 5.7 µM

COc1ccccc1C1CCN(C(=O)Cc2cccc(F)c2F)C1 (centres unmarked)
IC50 [1]: 7.4 µM
MIC (S. aureus strain RN4220): 100 µg/mL (≈ 302 µM)
MIC [2]: 50 µg/mL (≈ 151 µM)
MIC [3]: > 200 µg/mL
IC50 [4, 5]: 3 µM

O=C(Cc1ccccc1F)N1CCC(c2ccc3c(c2)OCO3)C1 (centres unmarked)
IC50 ([1]; pH 5.5): 32 µM
MIC (S. aureus strain RN4220): > 200 µg/mL
MIC [2]: 25 to 50 µg/mL (≈ 76.4 to 153 µM)
MIC [3]: > 200 µg/mL
IC50 [4, 5]: 2.7 µM

O=C(Cc1c(F)cccc1F)N1CCC(c2ccc3c(c2)OCO3)C1 (centres unmarked)
IC50 ([1]; pH 5.5): 54 µM
MIC (S. aureus strain RN4220): > 200 µg/mL
MIC [2]: > 200 µg/mL
MIC [3]: > 200 µg/mL
IC50 [4, 5]: 2.3 µM

O=C(Cc1cccc(F)c1F)N1CCC(c2ccc3c(c2)OCO3)C1 (centres unmarked)
IC50 ([1]; pH 5.5): 13.7 µM
MIC (S. aureus strain RN4220): 100 µg/mL (≈ 290 µM)
MIC [2]: 25 µg/mL (≈ 72.4 µM)
MIC [3]: > 200 µg/mL
IC50 [4, 5]: 5.5 µM
